The source made the active and inactive calls. The rule behind the calls is not given here.
Legend:
[1] = Cytotoxicity against multi drug-resistant human KBVIN cells at 20 ug/mL by sulforhodamine B assay; assay type: functional
[2] = test system: KB; assay: Cytotoxicity against human KB cells by sulforhodamine B assay; assay type: functional; conditions: read-out: ED50 (the source's name)
[3] = test system: PC-3; assay: Cytotoxicity against human PC3 cells by sulforhodamine B assay; assay type: functional; conditions: read-out: ED50 (the source's name)
[4] = test system: A549; assay: Cytotoxicity against human A549 cells by sulforhodamine B assay; assay type: functional; conditions: read-out: ED50 (the source's name)
[5] = test system: DU-145; assay: Cytotoxicity against human DU145 cells by sulforhodamine B assay; assay type: functional; conditions: read-out: ED50 (the source's name)
[6] = test system: LNCaP; assay: Cytotoxicity against human LNCAP cells by sulforhodamine B assay; assay type: functional; conditions: read-out: ED50 (the source's name)
[7] = test system: MCF7; assay: Cytotoxicity against human MCF7 cells by sulforhodamine B assay; assay type: functional; conditions: read-out: ED50 (the source's name)
[8] = test system: HUVEC; assay: Antiangiogenesis activity against HUVEC cells; assay type: functional; conditions: Homo sapiens, read-out: ED50 (the source's name)
[9] = test system: 1A9; assay: Cytotoxicity against human 1A9 cells by sulforhodamine B assay; assay type: functional; conditions: read-out: ED50 (the source's name)
[10] = (§1) Cytotoxicity against multi drug-resistant human KBVIN cells by sulforhodamine B assay; assay type: functional; conditions: read-out: ED50 (the source's name)
[11] = Cytotoxicity against human MRC5 cells by sulforhodamine B assay; assay type: cell-based; conditions: read-out: ED50 (the source's name)
[12] = test system: KBVIN; assay: as §1; assay type: functional

Compound	inhibition at 20 µg/mL [1] [%]	EC50 [2] [nM]	EC50 [3] [nM]	EC50 [4] [nM]	EC50 [5] [nM]	EC50 [6] [nM]	EC50 [7] [nM]	EC50 [8] [nM]	EC50 [9] [nM]	EC50 [10] [nM]	CC50 [11] [µM]	Activity [12]
COc1ccc2c(c1)[C@@H](NC(=O)CCC(=O)O[C@@H](C(=O)O[C@H]1C[C@@]3(O)[C@@H](OC(=O)c4ccccc4)[C@@H]4[C@]5(OC(C)=O)CO[C@@H]5C[C@H](O)[C@@]4(C)C(=O)[C@H](OC(C)=O)C(=C1C)C3(C)C)[C@@H](NC(=O)c1ccccc1)c1ccccc1)CCc1cc(OC)c(OC)c(OC)c1-2	< 50	21.6	70.4	28.5	34.4	23.7	29.2	15.8	14			
COc1cc2c(c(OC)c1O)-c1ccc(SC)c(=O)cc1[C@@H](NC(C)=O)CC2		47.9	112	99.8	114	59.9	59.9		43.6	7430		
COc1ccc2c(c1)[C@@H](/N=C/c1ccc(C(=O)O[C@@H](C(=O)O[C@H]3C[C@@]4(O)[C@@H](OC(=O)c5ccccc5)[C@@H]5[C@]6(OC(C)=O)CO[C@@H]6C[C@H](O)[C@@]5(C)C(=O)[C@H](OC(C)=O)C(=C3C)C4(C)C)[C@@H](NC(=O)c3ccccc3)c3ccccc3)cc1)CCc1cc(OC)c(OC)c(OC)c1-2		5.4		3.8				43	2.3	308		
COc1cc([C@@H]2c3cc4c(cc3[C@@H](N)[C@H]3COC(=O)[C@H]23)OCO4)cc(OC)c1O		111	1230	1070	3110	680	686		739	2050		
COc1cc([C@@H]2c3cc4c(cc3[C@@H](Nc3ccc(C(=O)NCCC(=O)O[C@H]5C[C@H]6OC[C@@]6(OC(C)=O)[C@H]6[C@H](OC(=O)c7ccccc7)[C@]7(O)C[C@H](OC(=O)[C@H](O)[C@@H](NC(=O)c8ccccc8)c8ccccc8)C(C)=C([C@@H](OC(C)=O)C(=O)[C@]56C)C7(C)C)cc3)[C@H]3COC(=O)[C@H]23)OCO4)cc(OC)c1O	< 50	31.6	86.3	45.6	83.4	22.1	43.9		20.7		3.28	
CC[C@@]1(O)C(=O)OCn2c1cc1c(c2=O)Cc2c-1nc1ccccc1c2C=O		80.6	18.4	12.8	7.7	4.3	4.3		4.3	25		
COc1cc2c(c(OC)c1OC(=O)CCC(=O)O[C@@H](C(=O)O[C@H]1C[C@@]3(O)[C@@H](OC(=O)c4ccccc4)[C@@H]4[C@]5(OC(C)=O)CO[C@@H]5C[C@H](O)[C@@]4(C)C(=O)[C@H](OC(C)=O)C(=C1C)C3(C)C)[C@@H](NC(=O)c1ccccc1)c1ccccc1)-c1ccc(OC)c(=O)cc1[C@@H](NC(C)=O)CC2	< 50	19	50.7	27.3	31.9	12.9	26.5	13.8	10.6			
CC[C@@]1(O)C(=O)OCc2c1cc1n(c2=O)Cc2cc3ccccc3nc2-1 [CAMPTOTHECIN]		20.9	16.7	6.9	10.9	2	3.2		3.2	15		
COc1cc2c(c(OC)c1O)-c1ccc(OC)c(=O)cc1[C@@H](NC(C)=O)CC2 [2-DESMETHYLCOLCHICIN]		146	475	951	612	325	361		184	29000		
COc1cc2c(c(OC)c1OC(=O)CCC(=O)O[C@@H](C(=O)O[C@H]1C[C@@]3(O)[C@@H](OC(=O)c4ccccc4)[C@@H]4[C@]5(OC(C)=O)CO[C@@H]5C[C@H](O)[C@@]4(C)C(=O)[C@H](OC(C)=O)C(=C1C)C3(C)C)[C@@H](NC(=O)c1ccccc1)c1ccccc1)-c1ccc(SC)c(=O)cc1[C@@H](NC(C)=O)CC2	< 50	17	71.8	23.2	29.8	19.5	24.7	9.33	10.3			
CC(=O)O[C@H]1C(=O)[C@@]2(C)[C@H]([C@H](OC(=O)c3ccccc3)[C@]3(O)C[C@H](OC(=O)[C@H](O)[C@@H](NC(=O)c4ccccc4)c4ccccc4)C(C)=C1C3(C)C)[C@]1(OC(C)=O)CO[C@@H]1C[C@@H]2O [PACLITAXEL]		1.8	55.5	2.3	1.3	2.6	1.1		1	311		
CC[C@@]1(O)C(=O)OCn2c1cc1c(c2=O)Cc2c-1nc1ccccc1c2/C=N/CCC(=O)O[C@@H](C(=O)O[C@H]1C[C@@]2(O)[C@@H](OC(=O)c3ccccc3)[C@@H]3[C@]4(OC(C)=O)CO[C@@H]4C[C@H](O)[C@@]3(C)C(=O)[C@H](OC(C)=O)C(=C1C)C2(C)C)[C@@H](NC(=O)c1ccccc1)c1ccccc1		1.3	14.8	2.6	3.7	3	26.7	0.73	1.6	62.4	0.178	
COc1cc([C@@H]2c3cc4c(cc3[C@@H](Nc3ccc(C(=O)NCCCC(=O)O[C@H]5C[C@H]6OC[C@@]6(OC(C)=O)[C@H]6[C@H](OC(=O)c7ccccc7)[C@]7(O)C[C@H](OC(=O)[C@H](O)[C@@H](NC(=O)c8ccccc8)c8ccccc8)C(C)=C([C@@H](OC(C)=O)C(=O)[C@]56C)C7(C)C)cc3)[C@H]3COC(=O)[C@H]23)OCO4)cc(OC)c1O		347		1320			125		104			inactive
COc1cc([C@@H]2c3cc4c(cc3[C@@H](Nc3ccc(C(=O)NCCCC(=O)O[C@@H](C(=O)O[C@H]5C[C@@]6(O)[C@@H](OC(=O)c7ccccc7)[C@@H]7[C@]8(OC(C)=O)CO[C@@H]8C[C@H](O)[C@@]7(C)C(=O)[C@H](OC(C)=O)C(=C5C)C6(C)C)[C@@H](NC(=O)c5ccccc5)c5ccccc5)cc3)[C@H]3COC(=O)[C@H]23)OCO4)cc(OC)c1O		13.9	42.8	23.7	32.5	10.2	22.1		8.1	6230	6.17	
COc1cc([C@@H]2c3cc4c(cc3[C@@H](NCc3ccc(C(=O)O[C@H]5C[C@H]6OC[C@@]6(OC(C)=O)[C@H]6[C@H](OC(=O)c7ccccc7)[C@]7(O)C[C@H](OC(=O)[C@H](O)[C@@H](NC(=O)c8ccccc8)c8ccccc8)C(C)=C([C@@H](OC(C)=O)C(=O)[C@]56C)C7(C)C)cc3)[C@H]3COC(=O)[C@H]23)OCO4)cc(OC)c1O		87.4	192	124	168	128	68.2		75.7	5200		
COc1cc([C@@H]2c3cc4c(cc3[C@@H](/N=C/c3ccc(C(=O)O[C@H]5C[C@H]6OC[C@@]6(OC(C)=O)[C@H]6[C@H](OC(=O)c7ccccc7)[C@]7(O)C[C@H](OC(=O)[C@H](O)[C@@H](NC(=O)c8ccccc8)c8ccccc8)C(C)=C([C@@H](OC(C)=O)C(=O)[C@]56C)C7(C)C)cc3)[C@H]3COC(=O)[C@H]23)OCO4)cc(OC)c1O		53.8	145	111	139	90.1	48.6	230	60.1	6220		
CC[C@@]1(O)C(=O)OCn2c1cc1c(c2=O)Cc2c-1nc1ccccc1c2CNCCC(=O)O[C@@H](C(=O)O[C@H]1C[C@@]2(O)[C@@H](OC(=O)c3ccccc3)[C@@H]3[C@]4(OC(C)=O)CO[C@@H]4C[C@H](O)[C@@]3(C)C(=O)[C@H](OC(C)=O)C(=C1C)C2(C)C)[C@@H](NC(=O)c1ccccc1)c1ccccc1		1.9	3.1	2.6	2.3	1.2	2.7	2.09	1.5	2050	6.13	
COc1ccc2c(c1)[C@@H](/N=C/c1ccc(C(=O)O[C@H]3C[C@H]4OC[C@@]4(OC(C)=O)[C@H]4[C@H](OC(=O)c5ccccc5)[C@]5(O)C[C@H](OC(=O)[C@H](O)[C@@H](NC(=O)c6ccccc6)c6ccccc6)C(C)=C([C@@H](OC(C)=O)C(=O)[C@]34C)C5(C)C)cc1)CCc1cc(OC)c(OC)c(OC)c1-2		2.3		3.8				293	2.3	308		
COc1cc([C@@H]2c3cc4c(cc3[C@@H](O[C@H]3O[C@H]5CO[C@H](C)O[C@@H]5[C@@H](O)[C@@H]3O)[C@H]3COC(=O)[C@H]23)OCO4)cc(OC)c1O		1360	9450	1610	1600	530	11700		285	14400	> 0.03	
CC[C@@]1(O)C(=O)OCn2c1cc1c(c2=O)Cc2c-1nc1ccccc1c2/C=N/CCCC(=O)O[C@@H](C(=O)O[C@H]1C[C@@]2(O)[C@@H](OC(=O)c3ccccc3)[C@@H]3[C@]4(OC(C)=O)CO[C@@H]4C[C@H](O)[C@@]3(C)C(=O)[C@H](OC(C)=O)C(=C1C)C2(C)C)[C@@H](NC(=O)c1ccccc1)c1ccccc1		1.5	19.4	1.9	1.9	0.34	34.1	0.98	1	56.3	0.244	
